Results on three compounds are retold here after patent US20220152028A1, “COMBINATION DRUG TREATMENT FOR HUMAN CYTOMEGALOVIRUS” (Microbiotix, Inc., priority 2019, published 2022).

For assay [1], the system named is HCMV control strain UL56 wt. The experiment in a line: SEAP reporter susceptibility assay in ARPEp cells, baseline strain. Format: cell-based, human cytomegalovirus. As to conditions: Human betaherpesvirus 5, 144 h, read-out: Mean EC50. The text has this:
(§1) These UL56 amino acid substitutions were introduced into the bacterial artificial chromosome (BAC) clone BD2 of HCMV laboratory strain AD169 modified with a secreted alkaline phosphatase (SEAP) reporter gene, as previously described (Chou, S., Antimicrob. Agents Chemother., 59: 6588-6593 (2015)). The mutagenized BAC clones were transfected into modified retinal epithelial (ARPEp) cells and the recovered infectious recombinant viruses were then genotyped and phenotyped as previously described (Chou et al., Antimicrob. Agents Chemother., 62(9): e00922-18 (2018)).
(§2) Control strains included a baseline strain of wild-type UL56 and a UL97 M460V mutant that is resistant to […]. For susceptibility assays, calibrated viral inocula were added to 24-well plate cultures of ARPEp cells and incubated under a series of filociclovir concentrations, and the concentrations required to reduce SEAP activity by 50% (EC50) at 6 days were determined in duplicate assays on each of 3 to 5 setup dates.

For assay [2], the system named is HCMV UL56 mutants (V231L, V236M, C325F, C325Y). The assay can be described thus: SEAP reporter susceptibility assay in ARPEp cells, UL56 mutants as a group. Format: cell-based, human cytomegalovirus. Conditions: Human betaherpesvirus 5, read-out: mean EC50 values against the UL56 mutants tested.
Text: (§3) In order to test the effect of filociclovir on letermovir-resistant strains, we used 4 HCMV UL56 mutants encountered in clinical practice: V231L, V236M, C325F and C325Y, the latter 2 of which commonly emerged to confer absolute letermovir resistance (Grantham et al., Biol. Blood Marrow Transplant. 25: S344-S345 (2019); Turner et al., Antimicrob. Agents Chemother., 63(3): e02337-18 (2019)).
as §1, §2

A further assay deals with HCMV UL56 mutant C325Y. The experiment in a line: SEAP reporter susceptibility assay in ARPEp cells, UL56 C325Y. Format: cell-based, human cytomegalovirus.
Text: as §3, §1, §2

The next assay has as its system HCMV UL56 mutant C325F. The assay can be described thus: SEAP reporter susceptibility assay in ARPEp cells, UL56 C325F. Format: cell-based, human cytomegalovirus.
Text: as §3, §1, §2

Another assay relates to HCMV UL97 M460V mutant. The assay can be described thus: SEAP reporter susceptibility assay in ARPEp cells, UL97 M460V. Format: cell-based, human cytomegalovirus.
Text: as §1, §2

In the next assay the test system is HCMV UL56 mutant V236M. The experiment in a line: SEAP reporter susceptibility assay in ARPEp cells, UL56 V236M. Format: cell-based, human cytomegalovirus.
Text: as §3, §1, §2

Another assay deals with HCMV (strain AD169). The experiment in a line: Plaque reduction assay in HFF cells infected with HCMV strain AD169. Format: cell-based, human cytomegalovirus. As to conditions: Human betaherpesvirus 5, 216 h, plaque count after 9 days, read-out: EC50, compound tested separately. On the procedure: We examined the in vitro anti-HCMV (strain AD169; ATCC #VR-538) activity of filociclovir and letermovir both separately and as triplicate combinations at a concentration range of 0.0064-100 μM, and 0.0064-100 nM, respectively.
Monolayers of human foreskin fibroblasts (HFF cells; ATCC #SCRC-1041) were grown in 1 ml of DMEM (Corning #10-013-CM) containing 10% heat-inactivated fetal bovine serum (Gibco #A38402-01) and 1% penicillin-streptomycin solution (Hyclone #SV30010) in 24-well plates and infected with 100 plaque forming units (PFUs) of HCMV. Following incubation for 1 hr at 37° C., the virus was aspirated and replaced with MEM (Corning #50-010-PB) containing 1% methyl cellulose (Sigma #M-0521) and the various concentrations of filociclovir and letermovir were added as set forth above. A set of wells, designated as non-treated controls, received neither of the two compounds.
Infected plates were incubated for 9 days at 37° C., then fixed and stained with crystal violet stain (0.1% in 20% methanol). The number of plaques in each well was counted and the level of synergism was assessed using MacSynergy™ II (Prichard and Shipman 1990, supra), which provides an overall evaluation of the deviation from the theoretical additive effect of both drugs based on individual dose-response curves.
(In a plaque reduction assay, fewer plaques than in the control indicate reduced infectivity or spread.)

For the next assay, the system named is HCMV UL56 mutant V231L. The assay can be described thus: SEAP reporter susceptibility assay in ARPEp cells, UL56 V231L. Format: cell-based, human cytomegalovirus.
Text: as §3, §1, §2

Another assay concerns the target HCMV DNA polymerase UL54 (Human cytomegalovirus, UniProt P08546). Conditions: higher than GCV-TP; cited from earlier work.
A further assay relates to HCMV. Conditions: literature statement; cited from earlier work.
The mark [3] stands for this setting: Human betaherpesvirus 5, 144 h, read-out: Mean EC50.

Sequence of HCMV DNA polymerase UL54 (P08546 whole entry): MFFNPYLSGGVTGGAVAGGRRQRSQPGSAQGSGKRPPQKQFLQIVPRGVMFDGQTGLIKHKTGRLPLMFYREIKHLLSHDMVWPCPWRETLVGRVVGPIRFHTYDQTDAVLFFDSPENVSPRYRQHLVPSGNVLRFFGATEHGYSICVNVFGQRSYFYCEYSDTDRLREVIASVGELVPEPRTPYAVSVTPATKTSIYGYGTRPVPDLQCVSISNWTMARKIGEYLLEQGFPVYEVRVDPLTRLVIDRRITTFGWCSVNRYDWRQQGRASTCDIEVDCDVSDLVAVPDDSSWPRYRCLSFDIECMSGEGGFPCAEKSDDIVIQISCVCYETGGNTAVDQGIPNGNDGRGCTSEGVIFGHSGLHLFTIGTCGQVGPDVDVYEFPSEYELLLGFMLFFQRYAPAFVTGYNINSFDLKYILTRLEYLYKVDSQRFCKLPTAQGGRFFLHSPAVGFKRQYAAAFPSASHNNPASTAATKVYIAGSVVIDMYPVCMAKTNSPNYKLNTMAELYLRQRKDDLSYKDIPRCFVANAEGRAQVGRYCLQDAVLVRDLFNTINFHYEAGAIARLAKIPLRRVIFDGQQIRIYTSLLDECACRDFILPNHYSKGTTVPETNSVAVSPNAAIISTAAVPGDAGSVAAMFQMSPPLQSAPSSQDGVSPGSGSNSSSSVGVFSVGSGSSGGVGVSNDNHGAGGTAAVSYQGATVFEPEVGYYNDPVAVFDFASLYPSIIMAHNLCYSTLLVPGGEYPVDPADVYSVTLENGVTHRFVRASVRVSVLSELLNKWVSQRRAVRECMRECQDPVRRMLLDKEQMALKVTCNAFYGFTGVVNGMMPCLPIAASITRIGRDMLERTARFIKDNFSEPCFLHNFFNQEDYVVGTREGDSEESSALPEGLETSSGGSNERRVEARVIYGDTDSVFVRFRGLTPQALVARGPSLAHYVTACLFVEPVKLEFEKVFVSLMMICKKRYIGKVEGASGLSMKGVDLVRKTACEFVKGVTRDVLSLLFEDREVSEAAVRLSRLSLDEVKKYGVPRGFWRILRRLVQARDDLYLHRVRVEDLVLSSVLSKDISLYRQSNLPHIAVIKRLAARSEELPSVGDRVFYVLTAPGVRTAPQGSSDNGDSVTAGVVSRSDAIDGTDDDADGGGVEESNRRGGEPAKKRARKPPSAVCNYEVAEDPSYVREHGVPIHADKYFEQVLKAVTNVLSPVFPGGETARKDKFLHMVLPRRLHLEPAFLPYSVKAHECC

Broadly, the EC50 is the concentration giving half of the maximal effect. Take `Nc1nc2c(ncn2/C=C2/CC2(CO)CO)c(=O)[nH]1` [Filociclovir, (Z)-9-{[2,2-bis-(hydroxymethyl)cyclopropylidene]methyl}guanine]: the EC50 is 430 nM in [1]; 290 to 380 nM in assay [2]; 380 nM in the assay with HCMV UL56 mutant C325Y (setting [3]); 350 nM in the assay with HCMV UL56 mutant C325F (setting [3]); 2030 nM in the assay on HCMV UL97 M460V mutant (setting [3]); 350 nM in the assay on HCMV UL56 mutant V236M (setting [3]). The EC50 came to 550 nM in the assay with HCMV (strain AD169) and 290 nM with HCMV UL56 mutant V231L (setting [3]). In addition, the “Ratio = EC50 of mutant/EC50 of wild type control” value came to 0.89 in the assay on HCMV UL56 mutant C325Y (UL56 C325Y); 0.82 with HCMV UL56 mutant C325F (UL56 C325F); 4.8 in the assay with HCMV UL97 M460V mutant (UL97 M460V); 0.81 in the assay with HCMV UL56 mutant V236M (UL56 V236M); 0.69 with HCMV UL56 mutant V231L (UL56 V231L).
On to `Nc1nc2c(ncn2/C=C2/CC2(CO)COP(=O)(O)OP(=O)(O)OP(=O)(O)O)c(=O)[nH]1` (stereo not shown) [FCV-TP, FCV triphosphate], for which the “affinity to HCMV DNA polymerase UL54 relative to GCV-TP” value at HCMV DNA polymerase UL54 is listed as “about 10 fold”.
`COc1cccc(N2CCN(C3=Nc4c(F)cccc4[C@H](CC(=O)O)N3c3cc(C(F)(F)F)ccc3OC)CC2)c1` [letermovir, 2-[(4S)-8-fluoro-2-[4-(3-methoxyphenyl)piperazin-1-yl]-3-[2-methoxy-5-(trifluoromethyl)phenyl]-4H-quinazolin-4-yl]acetic acid, reference compound]: the EC50 values result in the assay with HCMV is on record as “nanomolar range”. For the same compound, the EC50 in the assay on HCMV (strain AD169) is 3 nM.
